Columns and labels:
rhCOX-2 = biological target: T1, rhCOX-2 (Homo sapiens, UniProt P35354); test: Inhibition of rhCOX-2 (PGF2α by EIA, microsomal human recombinant enzyme); type: biochemical; settings: value in parentheses = IC50; 30 min preincubation, 30 μM arachidonic acid, 37° C., pH 7.8; read-out: % inh of rhCOX-2 (IC50)
T1 construct: made in house; host or cells: Sf9 or CHO cells (microsomal preparation)
T1 sequence (P35354 18-604): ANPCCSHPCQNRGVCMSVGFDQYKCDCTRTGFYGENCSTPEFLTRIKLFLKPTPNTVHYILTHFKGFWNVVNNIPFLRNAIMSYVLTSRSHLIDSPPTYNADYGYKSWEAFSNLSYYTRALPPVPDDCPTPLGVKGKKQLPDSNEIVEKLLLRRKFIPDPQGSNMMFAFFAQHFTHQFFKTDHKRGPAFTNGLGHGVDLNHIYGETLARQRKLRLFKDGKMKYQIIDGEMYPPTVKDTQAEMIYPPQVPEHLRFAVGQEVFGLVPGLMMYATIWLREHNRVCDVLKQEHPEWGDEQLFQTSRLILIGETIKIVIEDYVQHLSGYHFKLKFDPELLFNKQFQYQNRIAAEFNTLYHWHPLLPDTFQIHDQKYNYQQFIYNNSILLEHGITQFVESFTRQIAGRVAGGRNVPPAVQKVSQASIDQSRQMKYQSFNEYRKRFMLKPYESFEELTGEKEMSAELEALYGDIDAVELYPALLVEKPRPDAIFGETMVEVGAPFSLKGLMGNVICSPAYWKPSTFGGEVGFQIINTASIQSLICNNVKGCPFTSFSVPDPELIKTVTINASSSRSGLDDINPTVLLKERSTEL
Experimental: A representative compound of this invention was evaluated for inhibition of COX-2 and COX-1 enzymes as follows. Human COX-1 and COX-2 cDNAs were cloned from human monocytes, untreated and LPS-treated respectively, by RT-PCR using oligonucleotide primers based on published hCOX-1 and hCOX-2 sequences (Jones et al., J. Biol. Chem., 268, 9049 (1993)). The cDNAs were then transfected into either Sf9 or CHO cells and subsequently converted into a microsomal preparation as described by Glaser et al (Eur. J. Pharmacol. 281, 107-111 (1995)). The microsomal human recombinant enzymes were diluted with buffer (100 mM Tris, pH 7.8 at 37° C.) containing 0.5 mM phenol (964 μl total volume). The enzyme preparations were preincubated with vehicle (DMSO) or compounds in DMSO (1% DMSO in final assay) for 30 min at 37° C. Excess hematin was added 1 min prior to initiation of reaction ([…] final hematin) with 30 μM arachidonic acid (sodium salt). […]
The reaction was incubated for 35 sec (maximum level of PGH2 accumulation as determined from time course studies), and terminated by addition of […] of SnCl2 (1 mg/ml) in 0.1N HCl. PGH2 is quantitatively converted to PGF2a by this reaction (50% efficiency of total conversion). […] Combined ethyl acetate extracts were dried under N2 (g) and redissolved in EIA buffer (2.0 ml), and PGF2α was quantified by EIA.

COX-2 = settings: cited from earlier work; for inhibition of COX-1 and COX-2, selectivity in words: literature
Alzheimer's disease = settings: Rogers et al. 1993; cited from earlier work
[1] = Futaki et al. 1993; cited from earlier work

CSc1ccc(/C=C2/C(C)=C(CC(=O)C3=C(O)COC3=O)c3cc(F)ccc32)cc1 [Example 1, (Z)-3-[[5-Fluoro-2-methyl-1-[[4-(methylthio)phenyl]methylene]-1H-inden-3-yl]acetyl]-4-hydroxy-2(5H)-furanone]
IC50 (rhCOX-2): 0.027 µM

COc1ccc2c(c1)c(CC(=O)O)c(C)n2C(=O)c1ccc(Cl)cc1 [Indomethacin]
inhibition of COX-1 and COX-2, selectivity in words (COX-2): relatively non-selective inhibitor of COX-1 and COX-2
treatment of Alzheimer's disease (Alzheimer's disease): useful in the treatment of Alzheimer's disease

CS(=O)(=O)Nc1ccc([N+](=O)[O-])cc1OC1CCCCC1 [N-(2-cyclohexyloxy-4-nitrophenyl)methanesulfonamide]
inhibition of COX-1 and COX-2, selectivity in words (COX-2): selective COX-2 inhibitor
antiinflammatory effect [1]: effective antiinflammatory
gastric side effects [1]: lacks gastric side effects

CCc1cccc2c3c([nH]c12)C(CC)(CC(=O)O)OCC3 (stereo not shown) [etodolac]
selectivity for inhibition of COX-2 (COX-2; fold, reported by Glaser et al. 1995): tenfold

From patent US5869524A, “Indene inhibitors of COX-2” (American Home Products Corporation, priority 1997, dated 1999)
